Assay results: PubChem BioAssay (NCI)
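Five compound concentrations were applied to cells in 96-well plates for 48 hours; endpoints were derived by simple linear interpolation of the resulting dose-response curve. At the TGI there is no net growth.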

Key:
Test in all cases: DTP human tumour cell line panel, 48 h
T-47D breast = test system: T-47D breast
HOP-62 NSCLC = test system: HOP-62 NSCLC
ACHN renal = test system: ACHN renal
RXF 393 renal = test system: RXF 393 renal
DU-145 prostate = test system: DU-145 prostate
SN12C renal = test system: SN12C renal
A549 NSCLC = test system: A549 NSCLC
SK-OV-3 ovarian = test system: SK-OV-3 ovarian
MOLT-4 leukemia = test system: MOLT-4 leukemia
SNB-19 CNS = test system: SNB-19 CNS
NCI-H226 lung = test system: NCI-H226 lung
MDA-MB-435 = test system: MDA-MB-435
SNB-75 CNS = test system: SNB-75 CNS
CAKI-1 renal = test system: CAKI-1 renal
HL-60(TB) leukemia = test system: HL-60(TB) leukemia
SK-MEL-5 melanoma = test system: SK-MEL-5 melanoma
786-0 renal = test system: 786-0 renal
NCI-H522 lung = test system: NCI-H522 lung
UACC-62 melanoma = test system: UACC-62 melanoma
NCI-H23 lung = test system: NCI-H23 lung
K-562 leukemia = test system: K-562 leukemia
NCI/ADR-RES ovarian = test system: NCI/ADR-RES ovarian
HCT-116 colon = test system: HCT-116 colon
NCI-H460 lung = test system: NCI-H460 lung
OVCAR-5 ovarian = test system: OVCAR-5 ovarian
SF-539 CNS = test system: SF-539 CNS
EKVX NSCLC = test system: EKVX NSCLC
UACC-257 melanoma = test system: UACC-257 melanoma
SW-620 colon = test system: SW-620 colon
OVCAR-3 ovarian = test system: OVCAR-3 ovarian
SF-295 CNS = test system: SF-295 CNS
UO-31 renal = test system: UO-31 renal
A498 renal = test system: A498 renal
MDA-N = test system: MDA-N
HCC-2998 colon = test system: HCC-2998 colon
HS 578T breast = test system: HS 578T breast
MDA-MB-231 breast = test system: MDA-MB-231 breast
PC-3 prostate = test system: PC-3 prostate
KM12 colon = test system: KM12 colon
MCF7 breast = test system: MCF7 breast
U251 CNS = test system: U251 CNS
HT29 colon = test system: HT29 colon
SR leukemia = test system: SR leukemia
HCT-15 colon = test system: HCT-15 colon
BT-549 breast = test system: BT-549 breast
M14 melanoma = test system: M14 melanoma
RPMI-8226 leukemia = test system: RPMI-8226 leukemia
OVCAR-4 ovarian = test system: OVCAR-4 ovarian
CCRF-CEM leukemia = test system: CCRF-CEM leukemia
COLO 205 colon = test system: COLO 205 colon
TK-10 renal = test system: TK-10 renal
SF-268 CNS = test system: SF-268 CNS
MALME-3M melanoma = test system: MALME-3M melanoma
SK-MEL-28 melanoma = test system: SK-MEL-28 melanoma
SK-MEL-2 melanoma = test system: SK-MEL-2 melanoma

`CCOC(=O)CCC(NC(=O)Cc1ccc(Oc2nc3ccccc3nc2-c2ccccc2)cc1)C(=O)OCC` (stereo not given) was tested, and the TGI (T-47D breast) was 99.7 µM, the TGI (HOP-62 NSCLC) was > 100 µM and the TGI (ACHN renal) was > 100 µM. For the same molecule, the TGI (RXF 393 renal) was > 100 µM, the TGI (DU-145 prostate) was > 100 µM and the TGI (SN12C renal) was > 100 µM. For the same molecule, the TGI (A549 NSCLC) was > 100 µM, the TGI (SK-OV-3 ovarian) was > 100 µM and the TGI (MOLT-4 leukemia) was > 100 µM. For the same molecule, the TGI (SNB-19 CNS) was > 100 µM, the TGI (NCI-H226 lung) was 78.9 µM and the TGI (MDA-MB-435) was > 100 µM. For the same molecule, the TGI (SNB-75 CNS) was > 100 µM, the TGI (CAKI-1 renal) was > 100 µM and the TGI (HL-60(TB) leukemia) was > 100 µM. For the same molecule, the TGI (SK-MEL-5 melanoma) was > 100 µM, the TGI (786-0 renal) was > 100 µM and the TGI (NCI-H522 lung) was > 100 µM. The TGI (UACC-62 melanoma) was > 100 µM, the TGI (NCI-H23 lung) was > 100 µM and the TGI (K-562 leukemia) was > 100 µM. The TGI (NCI/ADR-RES ovarian) was > 100 µM, the TGI (HCT-116 colon) was > 100 µM and the TGI (NCI-H460 lung) was > 100 µM. For the same molecule, the TGI (OVCAR-5 ovarian) was > 100 µM, the TGI (SF-539 CNS) was > 100 µM and the TGI (EKVX NSCLC) was > 100 µM. For the same molecule, the TGI (UACC-257 melanoma) was > 100 µM, the TGI (SW-620 colon) was > 100 µM and the TGI (OVCAR-3 ovarian) was > 100 µM. The TGI (SF-295 CNS) was > 100 µM, the TGI (UO-31 renal) was > 100 µM and the TGI (A498 renal) was > 100 µM. For the same molecule, the TGI (MDA-N) was > 100 µM, the TGI (HCC-2998 colon) was > 100 µM and the TGI (HS 578T breast) was > 100 µM. The TGI (MDA-MB-231 breast) was > 100 µM, the TGI (PC-3 prostate) was > 100 µM and the TGI (KM12 colon) was > 100 µM. The TGI (MCF7 breast) was > 100 µM, the TGI (U251 CNS) was > 100 µM and the TGI (HT29 colon) was > 100 µM. The TGI (SR leukemia) was > 100 µM, the TGI (HCT-15 colon) was > 100 µM and the TGI (BT-549 breast) was > 100 µM. For the same molecule, the TGI (M14 melanoma) was > 100 µM, the TGI (RPMI-8226 leukemia) was > 100 µM and the TGI (OVCAR-4 ovarian) was > 100 µM. For the same molecule, the TGI (CCRF-CEM leukemia) was > 100 µM, the TGI (COLO 205 colon) was > 100 µM and the TGI (TK-10 renal) was > 100 µM. For the same molecule, the TGI (SF-268 CNS) was > 100 µM, the TGI (MALME-3M melanoma) was > 100 µM and the TGI (SK-MEL-28 melanoma) was > 100 µM. For the same molecule, the TGI (SK-MEL-2 melanoma) was > 100 µM.
